Patent US6200966A, “Compositions for inhibiting airway wall inflammation” (Amrad Operations Pty. Ltd., priority 1996, dated 2001)
“Also recorded” adds a separate entry of the source.

Legend:
adherent monocytes = assay: Superoxide anion generation in adherent monocytes; assay type: cell-based, human
[1] = tested on: Human polymorphonuclear leukocytes; assay: Tetramethylbenzidine oxidation (myeloperoxidase release/activity) in leukocytes; details: for Tetramethylbenzidine oxidation: 2-methoxyestradiol 3 μM
tumours = details: cited from earlier work
[2] = tested on: polymorphonuclear leukocytes (PMN); assay: Superoxide anion generation in PMN; assay type: cell-based, human; details: fMLP (100 nM) or zymosan (400 μg/ml); up to 10 μM
oestrogen receptors = details: Merriam et al, 1980; cited from earlier work
vascular smooth muscle = details: Goyache et al., 1995; cited from earlier work
[3] = tested on: human cultured airway smooth muscle cells; assay: DNA synthesis: [3H]-thymidine incorporation; assay type: cell-based
Protocol: Human bronchial airway smooth muscle was obtained from macroscopically normal lung resection specimens from lung transplant donors or recipients provided by the Alfred Hospital (Melbourne). Cultures were prepared as previously described in detail (Tomlinson et al., 1994). Briefly, the tissue was partially digested in Dulbecco's Modified Eagle's Medium (DMEM), [supplemented with 2 mM L-glutamine, 100 μg/ml streptomycin, 100 U/ml penicillin-G, 2 μg/ml amphotericin B, and 0.25% w/v bovine serum albumin (BSA)] containing 3 mg/ml collagenase for 30 minutes at 37° C. and approximately 0.5 g smooth muscle was further digested by a 2 hour incubation in 0.5 mg/ml elastase, followed by an 18 hour incubation in collagenase (3 mg/ml) at 37° C. Cell suspensions ere centrifuged (10 min, 100×g, 25° C.), washed three times in supplemented DMEM, resuspended in 25 ml DMEM containing 10% (v/v) heat-inactivated foetal calf serum (FCS), seeded into 25 cm^2 Falcon culture flasks and incubated (37° C., 5% CO2) for 7 to 10 days until monolayer confluence was reached. Cells were then harvested weekly by 10 min exposure to 0.5% trypsin, 1 mM EDTA and passaged at a 1:3 split ratio into 75 cm^2 Falcon culture flaskes. Cells at passage numbers 3 to 15 were used for experiments.
Cells were subcultured into 24-well plates at a 1:3 ratio and allowed to grow to monolayer confluency over a 72-96 hour period in an atmosphere of 5% CO2 in air at 37° C. The serum-containing medium was replaced with serum-free DMEM for a 24 hour period to produce growth arrest. In some experiments, the cells were pretreated with 2-methoxyestradiol 30 min before the addition of mitogen. The stimulant (mitogen) was added to the appropriate wells together with a supplement containing insulin, transferrin, and selenium (Monomed A, 1% v/v). Monomed A was added to provide progression factors which are essential for the mitogenic activity of growth factors such as thrombin, epidermal growth factor (EGF) and basic fibroblast growth factor (bFGF) (Stewart et al., 1995a). Mitogens and inhibitors were left in contact with cells from the time of addition until the end of the experiment, unless indicated otherwise. Cells were incubated for 24 hours (37° C., 5% CO2) before being pulsed with [^3 H]-thymidine (1 μCi/ml for four hours) to measure incorporation of radiolabel into newly synthesized DNA, according to out previous study (Stewart et al., 1995). Incorporation of radioactivity was determined by filtration at the end of the pulse-labelling period. The medium containing the radioactivity was aspirated and the cells were lysed by addition of 200 μl of 0.1M NaOH. The DNA was immobilised by filtration in a binding harvester (Packard Filtermate 196) on glass fibre filters (Packard, standard), which were then washed with 3×3 ml volumes of distilled water and a single 1 ml volume of 100% ethanol. The dried filters were counted in a Packard Topcount liquid scintillation counter. Protein synthesis rates were determined in experiments of analogous design to those described above, but [^3 H]-leucine replaced [^3 H]-thymidine in the pulsing incubation of 4 hours. Furthermore, in experiments to determine the effects of mitogens and 2-methoxyestradiol on the rate of protein synthesis, incubations with mitogen were carried out for a period of 48 hours. The longer duration of these experiments was required to allow sufficient time for cell division to occur.
Each treatment in an individual experiment was carried out in quadruplicate for DNA and protein synthesis experiments. Each experiment was performed in at least three different cultures obtained from three different individuals. For cell counting, single incubations were carried out in three cultures. Results are presented as grouped data from multiple cultures and are expressed as mean ±S. E. of n cultures. The degree of increment was calculated by dividing the response of treated wells by that of the control wells on the same 24-well plate.

[4] = tested on: Human polymorphonuclear leukocytes; assay: Phagocytosis: radioiodination of zymosan particles (125I uptake); assay type: cell-based
Protocol: Data are expressed as percentage of ^125 I incorporation into glass
fiber-filterable material. Assays were carried out using 1 ×

smooth muscle = details: Goyache et al., 1995; cited from earlier work
[5] = tested on: endothelial cells and fibroblasts; details: actively proliferating or non-quiescent; cited from earlier work
[6] = tested on: airway smooth muscle cells; details: 10 μM
[7] = 3 μM, thrombin, additional time points

In the case of COc1cc2c(cc1O)CC[C@@H]1[C@@H]2CC[C@]2(C)[C@@H](O)CC[C@@H]12 [2-methoxyestradiol, 1,3,5[10]-estratriene-2,3,17-triol 2-methylether], the “superoxide anion generation in adherent monocytes, PMA” value (adherent monocytes; response to PMA) is reported as “unaffected”, the “superoxide anion generation in adherent monocytes, zymosan” value (adherent monocytes; zymosan-stimulated, 10 μM, at least some donors) is reported as “markedly inhibited” and the “oxidation of tetramethyl-benzidine in leukocytes” value ([1]; 3 μM, zymosan (400 μg/ml) or fMLP stimulated) is reported as “reduced oxidation of tetramethyl-benzidine”. For the same compound, the Tetramethylbenzidine oxidation ([1]; control (no stimulus), 2×10^6 PMN in 0.5 ml) was -0.004 change in absorbance value, the Tetramethylbenzidine oxidation ([1]; fMLP 100 nM (basal 0.057)) was 0.028 change in absorbance value and the Tetramethylbenzidine oxidation ([1]; zymosan 400 μg/ml (basal 0.26)) was 0.013 change in absorbance value. For the same compound, the “myeloperoxidase activity in cell-free supernatants” value ([1]; fMLP stimulated leukocytes, highest concentration 10 μM) was “reduced only by the highest concentration”, the “release of myeloperoxidase from polymorphonuclear leukocytes” value ([1]; human peripheral blood) was “inhibits the release of myeloperoxidase” and the growth of tumours (tumours; Fotsis et al., 1994) was “inhibited the growth of tumurs”. The tumour neovascularization (tumours; Klauber et al, 1997) was “Inhibition of tumour neovascularization”, the “superoxide anion generation in PMN” value [2] was “not reduced” and the “affinity for oestrogen receptors” value (oestrogen receptors) was “not to have significant affinity”. The “vascular smooth muscle relaxation” value (vascular smooth muscle) was “relaxation of vascular smooth muscle”, the “DNA synthesis, addition at 18 hours or later after thrombin” value ([3]; 3 μM, thrombin 0.3 U/ml) was “no effect” and the “time of addition after thrombin giving maximum inhibition” value ([3]; 3 μM, thrombin 0.3 U/ml, first time-course) was 2 h. For the same compound, the “thrombin-stimulated DNA synthesis, addition up to 4 h after thrombin” value ([3]; 3 μM, thrombin 0.3 U/ml, time-course) was “inhibited”, the “persistence of significant inhibition after thrombin addition” value [3, 7] was “up to 6 hours” and the “time of addition giving the highest level of activity” value [3, 7] was “either simultaneously or 1 hour after thrombin”. The “relative potency among analogues examined” value ([3]; DNA synthesis) was “most potent of the analogues examined”, the “DNA synthesis in the presence of EGF or 10% FCS” value ([3]; EGF 3 nM or 10% FCS, relative to thrombin, bFGF, lower FCS) was “inhibited to a significantly lesser extent” and the “FCS (1%)-stimulated DNA synthesis, 10 μM” value ([3]; FCS 1%, 10 μM) was “inhibition was observed at 10 μM; also recorded: equivalent to 2-methoxyestradiol (10 μM)”. For the same compound, the “FCS (1%)-stimulated DNA synthesis, lower concentrations” value ([3]; FCS 1%, lower concentrations) was “enhanced”, the “inhibition with FCS (10%)” value ([3]; FCS 10%) was “significantly less inhibited” and the inhibition at 3 µM ([3]; Homo sapiens, 3 μM, thrombin 0.3 U/ml, read-out: inhibition of DNA synthesis, addition between 4 and 14 hours after thrombin) was ~20%. The activity at 10 µM ([3]; Homo sapiens, thrombin 0.3 U/ml, 10 μM, read-out: response to thrombin ([3H]-thymidine), remaining) was ~10%, the “concentration-response of enhancement of thrombin-stimulated DNA synthesis” value ([3]; thrombin) was “bell-shaped concentration-response curve” and the “enhancement of thrombin-stimulated DNA synthesis, 10 μM” value ([3]; thrombin 0.3 U/ml, 10 μM) was “level of enhancement declined at 10 μM”. The “thrombin-stimulated incorporation of [3H]-thymidine” value ([3]; thrombin 0.3 U/ml, 0.3-10 μM, 30 min pretreatment) was “concentration-dependentreduction”, the “thrombin-stimulated DNA synthesis (analogues)” value ([3]; thrombin 0.3 U/ml, up to 3 μM) was “enhanced thrombin-stimulated DNA synthesis” and the 125I uptake ([4]; 3 μM, PHS (pooled human serum), control (basal 2.13)) was 1.87 percentage of ^125 I incorpora. The 125I uptake ([4]; 3 μM, PHS, zymosan (basal 4.33)) was 3.27 percentage of ^125 I incorpora, the 125I uptake ([4]; 3 μM, no PHS, control (basal 1.80)) was 1.97 percentage of ^125 I incorpora and the 125I uptake ([4]; 3 μM, no PHS, zymosan (basal 2.83)) was 1.97 percentage of ^125 I incorpora. The 125I uptake ([4]; 10 μM, PHS, control (basal 2.13)) was 1.75 percentage of ^125 I incorpora, the 125I uptake ([4]; 10 μM, PHS, zymosan (basal 4.33)) was 1.65 percentage of ^125 I incorpora and the 125I uptake ([4]; 10 μM, no PHS, control (basal 1.80)) was 2.05 percentage of ^125 I incorpora. For the same compound, the 125I uptake ([4]; 10 μM, no PHS, zymosan (basal 2.83)) was 1.80 percentage of ^125 I incorpora, the “radioiodination of zymosan particles by PMN (phagocytosis)” value ([4]; 3 and 10 μM) was “significant effects being observed at both 3 and 10 μM” and the “phagocytic activity of polymorphonuclear leukocytes” value ([4]; human peripheral blood) was “reduction of phagocytic activity”. For the same compound, the “calcium influx into smooth muscle” value (smooth muscle) was “decrease calcium influx”, the “proliferation of endothelial cells and fibroblasts” value [5] was “inhibits proliferation” and the “cell detachment from the culture plates” value [6] was “no cell detachment”. For the same compound, the “protein synthesis rates (as evidence against cytotoxicity)” value [6] was “not altered”.
